ChEMBL document CHEMBL4041467, “Synthesis of novel 15-membered 8a-azahomoerythromycin A acylides: Consequences of structural modification at the C-3 and C-6 position on antibacterial activity” (Eur J Med Chem, 2017)
Converted amounts (≈) assume the structure as drawn.

Experiments:
[1] = Metabolic stability in human liver microsomes assessed as parent compound remaining at 1 uM after 60 mins in presence of NADP by LC-MS/MS analysis; assay type: ADME, microsome; conditions: read-out: Stability
[2] = Protein binding in mouse plasma at 1 ug/ml by LC-MS/MS analysis; assay type: ADME, cell-free; conditions: read-out: PPB (converted)
Streptococcus pneumoniae [3] = assay: Antibacterial activity against erythromycin susceptible Streptococcus pneumoniae infected in mouse assessed as increase in mouse survival administered orally 1 hr post infection; assay type: functional; conditions: po
[4] = Metabolic stability in rat liver microsomes assessed as parent compound remaining at 1 uM after 60 mins in presence of NADP by LC-MS/MS analysis; assay type: ADME, microsome; conditions: read-out: Stability
Staphylococcus aureus [5] = assay: Antibacterial activity against erythromycin susceptible Staphylococcus aureus infected in mouse assessed as increase in mouse survival administered orally 1 hr post infection; assay type: functional; conditions: po
Plasma [6] = assay: (§1) Protein binding in human plasma at 1 ug/ml by LC-MS/MS analysis; assay type: ADME, cell-free
[7] = Protein binding in rat plasma at 1 ug/ml by LC-MS/MS analysis; assay type: ADME, cell-free; conditions: read-out: PPB (converted)
[8] = Metabolic stability in mouse liver microsomes assessed as parent compound remaining at 1 uM after 60 mins in presence of NADP by LC-MS/MS analysis; assay type: ADME, microsome; conditions: read-out: Stability
Staphylococcus aureus [9] = assay: Antibacterial activity against constitutively macrolide/lincosamide/streptogramin B-resistant Staphylococcus aureus by agar microdilution method; assay type: functional
[10] = AUC(0 to infinity) in Han Wistar rat at 10 mg/kg, iv by LC-MS/MS analysis; assay type: ADME, organism-based; set-up: dose 10 mg/kg, route intravenous, time infinity; conditions: in vivo
Staphylococcus aureus [11] = assay: Antibacterial activity against erythromycin susceptible Staphylococcus aureus by agar microdilution method; assay type: functional
Streptococcus pyogenes [12] = assay: Antibacterial activity against Mef-mediated macrolide efflux resistant Streptococcus pyogenes by agar microdilution method; assay type: functional
[13] = Oral bioavailability in Han Wistar rat at 20 mg/kg by LC-MS/MS analysis; assay type: ADME, organism-based; conditions: in vivo
Haemophilus influenzae = assay: Antibacterial activity against Haemophilus influenzae by agar microdilution method; assay type: functional
[14] = Fraction unbound in Han Wistar rat plasma at 10 mg/kg, iv by LC-MS/MS analysis; assay type: ADME, organism-based
[15] = Terminal half life in Han Wistar rat at 10 mg/kg, iv by LC-MS/MS analysis; assay type: ADME, organism-based; conditions: in vivo, read-out: beta t1/2 (converted)
[16] = Cmax in Han Wistar rat at 20 mg/kg, po by LC-MS/MS analysis; assay type: ADME, organism-based; set-up: dose 20 mg/kg, route oral; conditions: in vivo
Streptococcus pneumoniae [17] = assay: Antibacterial activity against Mef-mediated macrolide efflux resistant Streptococcus pneumoniae by agar microdilution method; assay type: functional
Streptococcus pneumoniae [18] = assay: Antibacterial activity against erythromycin susceptible Streptococcus pneumoniae by agar microdilution method; assay type: functional
[19] = as §1; assay type: ADME, cell-free; conditions: read-out: PPB (converted)
[20] = Volume of distribution at steady state in Han Wistar rat at 10 mg/kg, iv by LC-MS/MS analysis; assay type: ADME, organism-based; conditions: in vivo, read-out: Vdss
[21] = Clearance in Han Wistar rat at 10 mg/kg, iv by LC-MS/MS analysis; assay type: ADME, organism-based; conditions: in vivo
Streptococcus pyogenes [22] = assay: Antibacterial activity against constitutively macrolide/lincosamide/streptogramin B-resistant Streptococcus pyogenes by agar microdilution method; assay type: functional
[23] = AUC(0 to infinity) in Han Wistar rat at 20 mg/kg, po by LC-MS/MS analysis; assay type: ADME, organism-based; set-up: dose 20 mg/kg, time infinity, route oral; conditions: in vivo
[24] = Tmax in Han Wistar rat at 20 mg/kg, po by LC-MS/MS analysis; assay type: ADME, organism-based; conditions: in vivo
Streptococcus pyogenes [25] = assay: Antibacterial activity against erythromycin susceptible Streptococcus pyogenes by agar microdilution method; assay type: functional
Rattus norvegicus = assay: Unbound clearance in Han Wistar rat at 10 mg/kg, iv by LC-MS/MS analysis; assay type: ADME, organism-based; conditions: in vivo
[26] = Cmax in Han Wistar rat at 10 mg/kg, iv by LC-MS/MS analysis; assay type: ADME, organism-based; set-up: dose 10 mg/kg, route intravenous; conditions: in vivo
Streptococcus pneumoniae [27] = assay: Antibacterial activity against constitutively macrolide/lincosamide/streptogramin B-resistant Streptococcus pneumoniae by agar microdilution method; assay type: functional
Staphylococcus aureus [28] = assay: Antibacterial activity against inducibly macrolide/lincosamide/streptogramin B-resistant Staphylococcus aureus by agar microdilution method; assay type: functional
Plasma [29] = assay: Stability in rat plasma at 1 uM up to 120 mins by LC-MS/MS analysis; assay type: ADME, cell-free; conditions: 2 h
Staphylococcus aureus [30] = assay: Potency index, ratio of clarithromycin ED50 to compound ED50 for erythromycin susceptible Staphylococcus aureus infected in mouse; assay type: functional
Streptococcus pneumoniae [31] = assay: Potency index, ratio of clarithromycin ED50 to compound ED50 for erythromycin susceptible Streptococcus pneumoniae infected in mouse; assay type: functional

CC[C@H]1OC(=O)[C@H](C)[C@@H](O[C@H]2C[C@@](C)(OC)[C@@H](O)[C@H](C)O2)[C@H](C)[C@@H](O[C@@H]2O[C@H](C)C[C@H](N(C)C)[C@H]2O)[C@](C)(OC)C[C@@H](C)C(=O)[C@H](C)[C@@H](O)[C@]1(C)O [CLARITHROMYCIN]
remaining at 1 h, 1 µM [1]: 91% | fraction unbound at 1 ug/ml [2]: 0.88 | ED50 (Streptococcus pneumoniae [3]): 27.2 to 34.6 mg/kg | remaining at 1 h, 1 µM [4]: 92.5% | ED50 (Staphylococcus aureus [5]): 22.4 to 24.8 mg/kg | PPB (Plasma [6]): 11% | fraction unbound at 1 ug/ml [7]: 1 | remaining at 1 h, 1 µM [8]: 100%

CC[C@H]1OC(=O)[C@H](C)C(=O)[C@H](C)[C@@H](O[C@@H]2O[C@H](C)C[C@H](N(C)C)[C@H]2O)[C@](C)(OC)C[C@@H](C)C(=O)[C@H](C)[C@H]2N(CCCCn3cnc(-c4cccnc4)c3)C(=O)O[C@]12C [TELITHROMYCIN]
fraction unbound at 1 ug/ml [2]: 0.41 | MIC (Staphylococcus aureus [9]): > 64 µg/mL | ED50 (Streptococcus pneumoniae [3]): 7.2 mg/kg | AUC(0-inf) [10]: 3950 ng·h/mL | MIC (Staphylococcus aureus [11]): ≤ 0.125 µg/mL | MIC (Streptococcus pyogenes [12]): 0.25 µg/mL (≈ 0.308 µM) | bioavailability [13]: 33% | MIC (Haemophilus influenzae): 2 µg/mL (≈ 2.46 µM) | fraction unbound [14]: 0.56 | half-life [15]: 1.7 h | ED50 (Staphylococcus aureus [5]): 5 mg/kg | Cmax [16]: 340 ng/mL | MIC (Streptococcus pneumoniae [17]): ≤ 0.125 µg/mL | MIC (Streptococcus pneumoniae [18]): ≤ 0.06 µg/mL | fraction unbound at 1 ug/ml [19]: 0.5 | Vd [20]: 5.6 L/kg | fraction unbound at 1 ug/ml [7]: 0.56 | clearance [21]: 42.5 mL/min/kg | MIC (Streptococcus pyogenes [22]): 4 µg/mL (≈ 4.93 µM) | AUC(0-inf) [23]: 2730 ng·h/mL | Tmax [24]: 2.3 h | MIC (Streptococcus pyogenes [25]): ≤ 0.06 µg/mL | CL free (Rattus norvegicus): 75.9 mL/min/kg | Cmax [26]: 1850 ng/mL | MIC (Streptococcus pneumoniae [27]): ≤ 0.125 µg/mL | MIC (Staphylococcus aureus [28]): 0.25 µg/mL (≈ 0.308 µM)

C=CCO[C@]1(C)C[C@@H](C)NC(=O)[C@H](C)[C@@H](O)[C@](C)(O)[C@@H](CC)OC(=O)[C@H](C)[C@@H](OC(=O)CCN2CCN(c3cc4c(cc3F)c(=O)c(C(=O)O)cn4C3CC3)CC2)[C@H](C)[C@H]1O[C@@H]1O[C@H](C)C[C@H](N(C)C)[C@H]1O
Stability (Plasma [29]): Stable | MIC (Staphylococcus aureus [9]): > 64 µg/mL | MIC (Staphylococcus aureus [11]): 0.5 µg/mL (≈ 0.492 µM) | MIC (Streptococcus pyogenes [12]): 0.5 µg/mL (≈ 0.492 µM) | MIC (Haemophilus influenzae): 4 µg/mL (≈ 3.94 µM) | MIC (Streptococcus pneumoniae [17]): 1 µg/mL (≈ 0.984 µM) | MIC (Streptococcus pneumoniae [18]): 0.5 µg/mL (≈ 0.492 µM) | MIC (Streptococcus pyogenes [22]): 8 µg/mL (≈ 7.87 µM) | MIC (Streptococcus pyogenes [25]): 0.5 µg/mL (≈ 0.492 µM) | MIC (Streptococcus pneumoniae [27]): 4 µg/mL (≈ 3.94 µM) | MIC (Staphylococcus aureus [28]): 1 µg/mL (≈ 0.984 µM)

CC[C@H]1OC(=O)[C@H](C)[C@@H](OC(=O)CCNCCNc2cc3c(=O)c(C(=O)O)cn(C4CC4)c3cc2Cl)[C@H](C)[C@@H](O[C@@H]2O[C@H](C)C[C@H](N(C)C)[C@H]2O)[C@](C)(OC/C=C/c2ccc3ncccc3c2)C[C@@H](C)NC(=O)[C@H](C)[C@@H](O)[C@]1(C)O
MIC (Staphylococcus aureus [9]): > 64 µg/mL | Ratio ED50 (Staphylococcus aureus [30]): 2 | ED50 (Streptococcus pneumoniae [3]): 15.1 mg/kg | MIC (Staphylococcus aureus [11]): 0.25 µg/mL (≈ 0.221 µM) | MIC (Streptococcus pyogenes [12]): 0.25 µg/mL (≈ 0.221 µM) | MIC (Haemophilus influenzae): 4 µg/mL (≈ 3.53 µM) | ED50 (Staphylococcus aureus [5]): 12.8 mg/kg | MIC (Streptococcus pneumoniae [17]): 0.25 µg/mL (≈ 0.221 µM) | MIC (Streptococcus pneumoniae [18]): ≤ 0.125 µg/mL | MIC (Streptococcus pyogenes [22]): 4 µg/mL (≈ 3.53 µM) | MIC (Streptococcus pyogenes [25]): ≤ 0.125 µg/mL | MIC (Staphylococcus aureus [28]): 0.25 µg/mL (≈ 0.221 µM) | Ratio ED50 (Streptococcus pneumoniae [31]): 2
